± gives the expanded uncertainty stated by the source.
Conditions: for viscosity / mass density: 101.33 kPa; for viscosity / mass density / vapor or sublimation pressure: Liquid; for viscosity: Capillary tube (Ostwald / Ubbelohde) method; for surface tension liquid-gas: Drop volume; for mass density: Pycnometric method; for vapor or sublimation pressure: Closed cell (Static) method

`CC(O)COC(C)COC(C)COC(C)CO` (stereo not drawn) [2-[2-[2-(2-hydroxypropoxy)propoxy]propoxy]-1-propanol] showed a viscosity (288.15 K) of 105.44 ± 1.4 mPa·s, a viscosity (293.15 K) of 67.81 ± 0.43 mPa·s and a surface tension liquid-gas (298.15 K) of 34.3 ± 0.2 mN/m. The mass density (298.15 K) was 1019.6 ± 0.3 kg/m3, the viscosity (299.15 K) was 44.89 ± 0.24 mPa·s and the viscosity (303.15 K) was 35.66 ± 0.2 mPa·s. The surface tension liquid-gas (308.15 K) was 33.4 ± 0.2 mN/m, the viscosity (308.15 K) was 27.85 ± 0.17 mPa·s and the mass density (308.15 K) was 1013.7 ± 0.3 kg/m3. The viscosity (313.15 K) was 22.48 ± 0.15 mPa·s, the surface tension liquid-gas (318.15 K) was 32.6 ± 0.2 mN/m and the viscosity (318.15 K) was 17.97 ± 0.13 mPa·s. For the same compound, the mass density (318.15 K) was 1007.9 ± 0.4 kg/m3, the viscosity (323.15 K) was 14.32 ± 0.12 mPa·s and the surface tension liquid-gas (328.15 K) was 31.8 ± 0.2 mN/m. It also gave a viscosity (328.15 K) of 11.58 ± 0.12 mPa·s, a mass density (328.15 K) of 1001.3 ± 0.4 kg/m3 and a viscosity (333.15 K) of 9.39 ± 0.11 mPa·s. For the same compound, the viscosity (338.15 K) was 7.65 ± 0.11 mPa·s, the mass density (338.15 K) was 995.4 ± 0.4 kg/m3 and the viscosity (344.15 K) was 6.04 ± 0.11 mPa·s. For the same compound, the surface tension liquid-gas (348.15 K) was 30.2 ± 0.2 mN/m, the viscosity (348.15 K) was 5.22 ± 0.1 mPa·s and the mass density (348.15 K) was 988.8 ± 0.4 kg/m3. For the same compound, the viscosity (353.15 K) was 4.42 ± 0.1 mPa·s, the mass density (353.15 K) was 985.1 ± 0.4 kg/m3 and the viscosity (358.15 K) was 3.84 ± 0.1 mPa·s. The mass density (358.15 K) was 982.5 ± 0.5 kg/m3, the viscosity (363.15 K) was 3.38 ± 0.1 mPa·s and the mass density (363.15 K) was 979 ± 0.5 kg/m3. It also gave a surface tension liquid-gas (368.15 K) of 28.5 ± 0.2 mN/m, a viscosity (368.15 K) of 3 ± 0.1 mPa·s and a mass density (368.15 K) of 975.5 ± 0.5 kg/m3. The viscosity (373.15 K) was 2.62 ± 0.1 mPa·s, the surface tension liquid-gas (378.15 K) was 27.7 ± 0.2 mN/m and the viscosity (378.15 K) was 2.28 ± 0.1 mPa·s. It also gave a viscosity (383.15 K) of 1.9 ± 0.1 mPa·s, a mass density (383.15 K) of 965.4 ± 0.5 kg/m3 and a viscosity (388.15 K) of 1.48 ± 0.1 mPa·s. For the same compound, the viscosity (393.15 K) was 1.02 ± 0.1 mPa·s, the mass density (393.15 K) was 958.7 ± 0.5 kg/m3 and the surface tension liquid-gas (398.15 K) was 26.1 ± 0.2 mN/m. The mass density (403.15 K) was 951.4 ± 0.5 kg/m3, the surface tension liquid-gas (408.15 K) was 25.2 ± 0.2 mN/m and the “vapor or sublimation pressure” value (409.85 K) was 0.01 kPa. The mass density (413.15 K) was 944.3 ± 0.6 kg/m3, the surface tension liquid-gas (418.15 K) was 24.4 ± 0.2 mN/m and the mass density (423.15 K) was 937 ± 0.6 kg/m3. For the same compound, the surface tension liquid-gas (428.15 K) was 23.6 ± 0.2 mN/m, the mass density (433.15 K) was 928.9 ± 0.6 kg/m3 and the surface tension liquid-gas (438.15 K) was 22.7 ± 0.2 mN/m. The mass density (443.15 K) was 919.4 ± 0.6 kg/m3, the surface tension liquid-gas (448.15 K) was 21.9 ± 0.2 mN/m and the surface tension liquid-gas (458.15 K) was 21.1 ± 0.2 mN/m. The “vapor or sublimation pressure” value (462.55 K) was 2.68 ± 0.03 kPa, the surface tension liquid-gas (468.15 K) was 20.2 ± 0.2 mN/m and the “vapor or sublimation pressure” value (480.15 K) was 5.34 ± 0.03 kPa. For the same compound, the “vapor or sublimation pressure” value (486.15 K) was 6.66 ± 0.03 kPa, the “vapor or sublimation pressure” value (492.15 K) was 8.02 ± 0.03 kPa and the “vapor or sublimation pressure” value (500.15 K) was 10.72 ± 0.04 kPa. The “vapor or sublimation pressure” value (507.15 K) was 13.36 ± 0.04 kPa, the “vapor or sublimation pressure” value (513.15 K) was 16.05 ± 0.04 kPa and the “vapor or sublimation pressure” value (518.15 K) was 18.79 ± 0.05 kPa. For the same compound, the “vapor or sublimation pressure” value (522.15 K) was 21.34 ± 0.05 kPa, the “vapor or sublimation pressure” value (527.15 K) was 24.02 ± 0.05 kPa and the “vapor or sublimation pressure” value (530.15 K) was 26.71 ± 0.06 kPa. The “vapor or sublimation pressure” value (537.15 K) was 32.05 ± 0.06 kPa, the “vapor or sublimation pressure” value (543.15 K) was 37.42 ± 0.07 kPa and the “vapor or sublimation pressure” value (545.15 K) was 40.02 ± 0.08 kPa. For the same compound, the “vapor or sublimation pressure” value (550.15 K) was 45.37 ± 0.09 kPa, the “vapor or sublimation pressure” value (554.15 K) was 50.69 ± 0.1 kPa and the “vapor or sublimation pressure” value (556.15 K) was 53.36 ± 0.1 kPa. The “vapor or sublimation pressure” value (560.15 K) was 58.74 ± 0.11 kPa, the “vapor or sublimation pressure” value (564.15 K) was 64.02 ± 0.12 kPa and the “vapor or sublimation pressure” value (567.15 K) was 69.28 ± 0.13 kPa. For the same compound, the “vapor or sublimation pressure” value (570.15 K) was 74.63 ± 0.14 kPa, the “vapor or sublimation pressure” value (575.15 K) was 83.34 ± 0.15 kPa and the “vapor or sublimation pressure” value (582.15 K) was 101.02 ± 0.18 kPa.

From the NIST ThermoML archive (doi:10.1021/je4004977)
